Measured values reported in patent US20130165771A1 (priority 2011, published 2013).

Assays:
[1] = tested on: eye with CNV complicated with proliferated retinopathy and atrophy of choroidal circulation; test: Comparison of Na-fluorescein, ICG and FITC-dextran fundus angiography on the eye with proliferative CNV (Example 9, Table 1); assay type: in vivo, rabbit; settings: for morphological detail of the CNV, proliferated retinopathy and atrophy of choroidal circulation on the angiogram: Dutch-belted rabbit, same eye, Na-fluorescein 5 mg/kg, ICG 2.5 mg/kg, FITC-dextran 70 kDa 2.5 mg/kg i.v.; for Clarity of angiography / Duration: Choroidal neovascularization / Duration: Normal Choroidal vasculatures / Neovascularization complex / Duration: Retinal neovascularization / Duration: Normal retinal vessels: Table 1
Source text: Materials and Methods: the choroidal neovascularization in the eye of Dutch-belted rabbit was induced by sub-retinal injection of vascular growth factors (VGF). The proliferated retinopathy of the choroidal neovascularization membrane and the atrophy of choroidal circulation were the complications of the CNV, occurring at the late stage of the disease. […] The fundus angiograms of IGC were obtained using the fundus image system (Topcon 50 VT) at wavelength of 800 nm.

serum proteins = settings: in the blood stream; cited from earlier work
[2] = tested on: retinal pigmental endothelial cells; settings: reported (Kodjikian, et al, 2005; Giuseppe, et al, 2008); cited from earlier work
[3] = tested on: eyes with choroidal neovascularization (CNV); test: Comparison of FITC-dextran with Na-fluorescein fundus angiography on eyes with CNV (Example 6); assay type: in vivo; settings: rabbit CNV; Na-fluorescein 5 mg/kg i.v.; FITC-dextran 70 kDa 2.5 mg/kg i.v.
Source text: Materials and Methods: The choroidal neovascularization (CNV) in rabbit eye was induced by sub-retinal injection of vascular growth factors (VGF).

[4] = tested on: eye with choroidal neovascularization complicated with retinal detachment; test: Comparison on the eye with CNV complicated with retinal detachment (Example 7); assay type: in vivo; settings: rabbit; Na-fluorescein 5 mg/kg i.v.; FITC-dextran 70 kDa 2.5 mg/kg i.v.; same rabbit
Experimental: Materials and Methods: the choroidal neovascularization in the eye of rabbit was induced by sub-retinal injection of vascular growth factors (VGF). The complicated retinal detachment in the eye was caused by leakage of blood from the choroidal newly grown blood vessels and accumulated in the space of the sub-retinal between the detached retinal and the pigmented layer. […] The Na-fluorescence fundus angiography and the FITC-dextran fundus angiography were performed on the same rabbit with one-day interval between these two fundus angiographies.

[5] = tested on: eye with choroidal neovascularization complicated with sub-retinal hemorrhage; test: Comparison on the eye with CNV complicated with sub-retinal hemorrhage (Example 8); assay type: in vivo; settings: rabbit; Na-fluorescein 5 mg/kg i.v.; FITC-dextran 70 kDa 2.5 mg/kg i.v.; same rabbit
Experimental: Materials and Methods: the choroidal neovascularization in the rabbit eye was induced by sub-retinal injection of vascular growth factors (VGF). The sub-retinal hemorrhage was caused by the pathological changes of the newly grown blood vessels underneath of the retinal. […] The Na-fluorescence fundus angiography and the FITC-dextran fundus angiography, were performed on the same rabbit with one-day interval between these two fundus angiographies.

fundus = settings: following intravenous injection of the dye; clinical practice; cited from earlier work
[6] = tested on: eye with retinal neovascularization; test: Comparison of FITC-dextran with Na-fluorescein fundus angiography on the eye with retinal neovascularization (Example 10); settings: monkey eye with retinal neovascularization; following injection of the dye
Experimental: Materials and Methods: Retinal neovascularization in the eye of the monkey was induced by sub-retinal administration of vascular growth factors (VGF). For Na-fluorescence fundus angiography, the 0.5% of Na-fluorescein solution was injected through the antecubital vein at the dose of 5 mg/kg of the body weight. […] The fundus angiograms were obtained using a regular fluorescence fundus system (Topcon 50 VT).

[7] = tested on: retinal vasculature and choroidal vasculature; test: FITC-dextran fundus angiography in normal rabbit eyes (Example 1); assay type: in vivo; settings: naive rabbit; FITC-dextran 70 kDa, 25 mg/ml, 0.3 ml intravenously
Source text: Materials and Methods: The naive rabbits with bodyweight of 1.8-2.5 kilograms were used for this test.

choroidal vasculature = test: Effective image duration of FITC-dextran fundus angiography in rabbit (Example 2); assay type: in vivo; settings: Dutch Belted rabbit, single intravenous injection of FITC-dextran 70 kDa, 25 mg/ml, 0.3 ml
Experimental: The volume of 0.3 ml of the solution was injected through the marginal vein of a Dutch Belted rabbit. […] The angiograms of choroidal vasculature were captured using a regular fluorescence fundus image system (Topcon 50 VT).

[8] = tested on: eye with retinal detachment; test: FITC-dextran fundus angiography in the eye with retinal detachment (Example 3); assay type: in vivo; settings: pigmented rabbit; detachment induced by sub-retinal Healon; FITC-dextran 70 kDa, 25 mg/ml, 0.3 ml i.v.
Experimental: Materials and Methods: The retinal detachment was induced by sub-retinal injection of Healon in the eye of pigmented rabbit. […] The volume of 0.3 ml of the solution was injected intravenously through the marginal vein of the rabbit.

[9] = tested on: eye with choroidal neovascularization (CNV); test: FITC-dextran fundus angiography on the eye with choroidal neovascularization (Example 4); assay type: in vivo; settings: pigmented rabbit; CNV induced by sub-retinal vascular growth factors; FITC-dextran 70 kDa, 25 mg/ml, 0.3 ml i.v.
Experimental: Materials and Methods: The choroidal neovascularization (CNV) was induced by sub-retinal injection of vascular growth factors in the eye of pigmented rabbit. […] The volume of 0.3 ml of the solution was injected through marginal vein of the rabbit.

Row | Compound | morphological detail of the CNV, proliferated retinopathy and atrophy of choroidal circulation on the angiogram [1] | Clarity of angiography [1] | Duration: Choroidal neovascularization [1] [min] | Duration: Normal Choroidal vasculatures [1] [min] | Neovascularization complex [1] | molecules bound to serum proteins (serum proteins) | toxic effects on retinal pigmental endothelial cells and outer portion of the retinal tissues [2] | morphological detail of the CNV on the angiogram [3] | morphological detail of the CNV and the retinal detachment on the angiogram [4] | morphological detail of the CNV and the hemorrhage on the angiogram [5] | Duration: Retinal neovascularization ([1]; then leak out) [s] | Duration: Normal retinal vessels ([1]; then watch out) | best effective image duration (fundus) | effective image duration [6] | visualization of retinal vasculature and choroidal vasculature in a same fundus angiogram [7] | effective image duration (choroidal vasculature) | quality of angiograms of the eye with retinal detachment [8] | visualization of new blood vessels grown from choroidal [9] | Duration: Normal retinal vessels [1] [h] | Duration: Retinal neovascularization [1] [s]
1 | CC1(C)C(/C=C/C=C/C=C/C=C2\N(CCCCS(=O)(=O)O)c3ccc4ccccc4c3C2(C)C)=[N+](CCCCS(=O)(=O)[O-])c2ccc3ccccc3c21 [ICG, indocyanine green] | able to visualize the structure of the CNV and the injured choroidal vascular networks | poor | 3 to 5 | 3 to 5 | good | 98% | toxic effects |  |  |  |  |  |  |  |  |  |  |  |  | 
2 | O=C([O-])c1ccccc1-c1c2ccc(=O)cc-2oc2cc([O-])ccc12.[Na+].[Na+] [Na-Fluorescein, sodium fluorescein] | without morphological details of the CNV | good |  |  | poor | 70-80% |  | without the morphological detail of the CNV | without the morphological details of the CNV and the detachment | without the morphological details of the CNV and the hemorrhage | ≤ 10 | 2-5 minutes, | about 5 minutes | about two |  |  |  |  |  | 
3 | fluorescein isothiocyanate dextran [FITC-Dextran] | able to visualize the newly grown blood vessels with details of the CNV | best | >60 | >60 | best |  |  | detailed morphological information of the newly grown vasculature was revealed | the morphological nature of the newly grown vasculature and the detachment of the retina were visualized | able to provide the morphological nature of the newly grown vasculature complicated with retinal hemorrhage |  |  |  |  | able to visualize both retinal vasculature and choroidal vasculature | up to 2 hours | super clear and high resolution angiograms | able to visualize the new blood vessels grown from choroidal | >1 | >3600
